Source: patent US12075778B2, “Inhibitor for resisting muskmelon powdery mildew as well as preparation method and application thereof” (Northeast Agricultural University, priority 2022, dated 2024)

What was measured:
[1] = tested on: pathogen of muskmelon gummy stem blight; assay: Plate experiment of inhibitory effect on pathogen of muskmelon gummy stem blight (PDA medium); format: cell-based; settings: allantoin aqueous solution 700 mg/L and 1050 mg/L smeared on PDA plates, 7 days, 28° C.
Experimental: Based on the purpose of study, the inventor designed a plate experiment. Considering that powdery mildew is a living parasitic fungi and can only grow and reproduce on living plants, a PDA medium cannot be used for culturing, so that pathogen of muskmelon gummy stem blight is used for experiment. The specific experiment method is as follows: a PDA medium was prepared and poured into plates; equal amounts of an allantoin aqueous solution with the concentration of 700 mg/L, an allantoin aqueous solution with the concentration of 1050 mg/L and sterile water were respectively smeared on three plates, and then a bacterial cake of the pathogen of muskmelon gummy stem blight was inoculated in the center of each plate; the plates were cultured for 7 days under 28° C., and the growth of the pathogen of muskmelon gummy stem blight in the three plates was observed.

muskmelon powdery mildew = assay: Resistance to powdery mildew of muskmelon plants sprayed with allantoin aqueous solution and inoculated with spore suspension (greenhouse); format: in vivo, Podosphaera xanthii; settings: for plant morbidity: inoculated 24 h after first spraying
Experimental: Preparation and inoculation of pathogen spore suspension of muskmelon powdery mildew:
Muskmelon leaves with severe powdery mildew were randomly selected from the field, and conidia were transferred to a beaker containing sterile water by a brush and uniformly stirred to obtain the spore suspension of powdery mildew. Spore concentration was measured under an optical microscope by using a blood counting chamber, and the concentration of the spore suspension was adjusted to be 1×10^6spores/mL for later use, which was used for inoculation tests. It was identified that this bacterial suspension was the bacterial suspension of muskmelon powdery mildew.
Muskmelon seedlings were planted in a greenhouse in June. When the muskmelon seedlings grown to the spreading stage, they were divided into a blank group, a pathogen inoculation group, a negative control group and an experimental group. […] The negative control group was sprayed with the sterile water at 5:00 pm to 6:00 pm, spraying was carried out once every three days, and the spraying amount of each time was the same as that of the aqueous solution containing allantoin in the experimental group. 24 hours after the first spraying of the allantoin water solution in the experimental group, the negative control group, the pathogen inoculation group and the experimental group were inoculated with the spore suspension of powdery mildew obtained above after the solution on the leaves was evaporated. After the pathogen inoculation group was infected with powdery mildew, the resistance to powdery mildew of the experimental group and the negative control group was observed (as shown in FIG. 1A-B), and the disease index, morbidity and control efficiency of the experimental group were calculated.
Leaf morphology was graded according to the response of the muskmelon leaves infected with powdery mildew. Grade 0: no infection; grade 1: no obvious infection; grade 2: mild infection; grade 3: moderate infection; grade 4: severe infection; and grade 5: whole-leaf infection. Disease index=sum of disease grade numbers of all leaves of an individual plant/number of leaves of the individual plant×the highest disease grade of the leaves of the individual plant Morbidity=number of infected individual plants/total number of investigated individual plants×100% Control efficiency=number of uninfected individual plants/total number of investigated individual plants×100%
Muskmelon seedlings were planted in a greenhouse in June. When the muskmelon seedlings grown to the three-leaves and one-bud stage, they were divided into a blank group, a pathogen inoculation group, a negative control group and an experimental group. The muskmelon leaves in the experimental group were sprayed with an aqueous solution containing allantoin with the concentration of 1050 mg/L at 5:00 pm to 6:00 pm, spraying was carried out once every three days, and a medicament was uniformly covered on the leaves for each time of spraying. The negative control group was sprayed with the sterile water at 5:00 pm to 6:00 pm, spraying was carried out once every three days, and the spraying amount of each time was the same as that of the aqueous solution containing allantoin in the experimental group. 24 hours after the first spraying of the allantoin water solution in the experimental group, the negative control group, the pathogen inoculation group and the experimental group were inoculated with the spore suspension of powdery mildew obtained above after the solution on the leaves was evaporated. After the pathogen inoculation group was infected with powdery mildew, the resistance to powdery mildew of the experimental group was observed (as shown in FIG. 2A-B), and the disease index, morbidity and control efficiency of the experimental group were calculated.

[2] = Example 3: 700 mg/L allantoin aqueous solution sprayed on leaves once every three days, spreading stage
[3] = Example 4: 1050 mg/L allantoin aqueous solution sprayed on leaves once every three days, three-leaves and one-bud stage

NC(=O)NC1NC(=O)NC1=O (stereo not shown) [allantoin]
growth of the pathogen of muskmelon gummy stem blight on plate [1]: does not inhibit the growth
control efficiency (muskmelon powdery mildew; [2]): 100%
disease index (muskmelon powdery mildew; [2]): 0
plant morbidity (muskmelon powdery mildew; [2]): 0%
powdery mildew spots on the leaves (muskmelon powdery mildew; Example 3: 700 mg/L allantoin aqueous solution, spreading stage (FIG. 1A)): no powdery mildew spot is generated on the leaves
plant morbidity (muskmelon powdery mildew; Example 4: 1050 mg/L allantoin aqueous solution sprayed on leaves once every three days, three-leaves and one-bud (seedling) stage): 0%
control efficiency (muskmelon powdery mildew; [3]): 100%
disease index (muskmelon powdery mildew; [3]): 0
powdery mildew spots on the leaves (muskmelon powdery mildew; Example 4: 1050 mg/L allantoin aqueous solution, three-leaves and one-bud stage (FIG. 2)): no powdery mildew spot is generated on the leaves
control efficiency (summary statement) (muskmelon powdery mildew; aqueous solution containing allantoin sprayed on leaves in the spreading stage or the three-leaves and one-bud stage): ≤ 100%
